Laboratory results: ChEMBL document CHEMBL1151899, “Oleanane-type isomeric triterpenoids from Barringtonia racemosa” (J Nat Prod, 2009)

What was measured:
[1] = Cytotoxicity against mouse P388D1 cells by MTT assay; type: functional, cell-based
HeLa = assay: Cytotoxicity against human HeLa cells by MTT assay; type: functional, cell-based

Compound	IC50 [1] [µM]	IC50 (HeLa) [µM]
CC1(C)C[C@H]2C3=CC[C@@H]4[C@@]5(C)CC[C@H](O)C(C)(C)[C@@H]5CC[C@@]4(C)[C@]3(C)C[C@@H](O)[C@@]2(CO)[C@@H](O)[C@@H]1O [BARRINGTOGENOL C]	> 50	> 50
CCC(C)C(=O)OC[C@@]12[C@H](O)[C@H](O)[C@]3(C)C(=CC[C@@H]4[C@@]5(C)CC[C@H](O)C(C)(C)[C@@H]5CC[C@]43C)[C@@H]1CC(C)(C)[C@@H](O)[C@@H]2OC(C)=O (stereo partly drawn) [RACEMOSOL A]	> 50	> 50
CC[C@H](/C=C/[C@@H](C)[C@H]1CC[C@H]2[C@@H]3CC=C4C[C@@H](O)CC[C@]4(C)[C@H]3CC[C@]12C)C(C)C [STIGMASTEROL]	> 50	> 50
CC1(C)CC[C@]2(C(=O)O)CC[C@]3(C)C(=CC[C@@H]4[C@@]5(C)C[C@@H](O)[C@H](O)[C@@](C)(C(=O)O)[C@@H]5CC[C@]43C)[C@@H]2[C@@H]1O [BARTOGENIC ACID]	> 50	> 50
CCC(C)C(=O)O[C@H]1[C@H](OC(C)=O)C(C)(C)C[C@H]2C3=CC[C@@H]4[C@@]5(C)CC[C@H](O)C(C)(C)[C@@H]5CC[C@@]4(C)[C@]3(C)[C@@H](O)[C@@H](O)[C@]21CO (stereo partly drawn) [ISORACEMOSOL A]	> 50	> 50
